Laboratory results: PubChem BioAssay AID2060882 (Molecular Pharmacology Branch, DTP, NCI, 2025)

Test system: 898857-211-R-J1-PDC complex spheroids, growth % test/control
Assay: Anticancer human tumor 898857-211-R-J1-PDC patient-derived melanoma cell line growth inhibition [RAS]
Details: for IC50: curve of first compound; for viability, T/C: stronger effect = lower value
Summary of the method: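 Multi-cell-type spheroids: tumor cells plus HUVEC endothelial cells and mesenchymal stem cells. RAS-pathway inhibitors were combined with targeted agents, each dosed in half-log steps down from clinical Cmax, or from 10 microM when Cmax was unknown.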

[1] = second compound 0.000949 µM, first compound 0.000949 µM
[2] = second compound 0.000949 µM, first compound 0.003 µM
[3] = second compound 0.000949 µM, first compound 0.00949 µM
[4] = second compound 0.000949 µM, first compound 0.03 µM
[5] = second compound 0.000949 µM, first compound 0.0949 µM
[6] = second compound 0.000949 µM, first compound 0.3 µM
[7] = second compound 0.003 µM, first compound 0.000949 µM
[8] = second compound 0.003 µM, first compound 0.003 µM
[9] = second compound 0.003 µM, first compound 0.00949 µM
[10] = second compound 0.003 µM, first compound 0.03 µM
[11] = second compound 0.003 µM, first compound 0.0949 µM
[12] = second compound 0.003 µM, first compound 0.3 µM
[13] = second compound 0.00949 µM, first compound 0.000949 µM
[14] = second compound 0.00949 µM, first compound 0.003 µM
[15] = second compound 0.00949 µM, first compound 0.00949 µM
[16] = second compound 0.00949 µM, first compound 0.03 µM
[17] = second compound 0.00949 µM, first compound 0.0949 µM
[18] = second compound 0.00949 µM, first compound 0.3 µM
[19] = second compound 0.03 µM, first compound 0.000949 µM
[20] = second compound 0.03 µM, first compound 0.003 µM
[21] = second compound 0.03 µM, first compound 0.00949 µM
[22] = second compound 0.03 µM, first compound 0.03 µM
[23] = second compound 0.03 µM, first compound 0.0949 µM
[24] = second compound 0.03 µM, first compound 0.3 µM
[25] = second compound 0.0949 µM, first compound 0.000949 µM
[26] = second compound 0.0949 µM, first compound 0.003 µM
[27] = second compound 0.0949 µM, first compound 0.00949 µM
[28] = second compound 0.0949 µM, first compound 0.03 µM
[29] = second compound 0.0949 µM, first compound 0.0949 µM
[30] = second compound 0.0949 µM, first compound 0.3 µM
[31] = second compound 0.3 µM, first compound 0.000949 µM
[32] = second compound 0.3 µM, first compound 0.003 µM
[33] = second compound 0.3 µM, first compound 0.00949 µM
[34] = second compound 0.3 µM, first compound 0.03 µM
[35] = second compound 0.3 µM, first compound 0.0949 µM
[36] = second compound 0.3 µM, first compound 0.3 µM
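Further: spheroids exposed to compound for seven days before readout.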
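Wherever viability, T/C is given: 100% = DMSO vehicle control wells.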

With C=CC(=O)N1CCN(c2nc(OCC3CCCN3C)nc3c(F)c(-c4nc(N)cc(C)c4C(F)(F)F)c(Cl)cc23)C(C)C1 (stereo unspecified) + CCn1c(-c2cc(N3CCN(C)CC3)cnc2C(C)OC)c2c3cc(ccc31)-c1csc(n1)CC(NC(=O)C1CC1C)C(=O)N1CCCC(N1)C(=O)OCC(C)(C)C2 the IC50 (second compound 0.000949 µM) was > 1000 nM, the IC50 (second compound 0.003 µM) was > 1000 nM and the IC50 (second compound 0.00949 µM) was > 1000 nM. The IC50 (second compound 0.03 µM) was > 1000 nM, the IC50 (second compound 0.0949 µM) was > 1000 nM and the IC50 (second compound 0.3 µM) was > 1000 nM. The viability, T/C (second compound 0.000949 µM, first compound 0.00316 µM) was 124%, the viability, T/C (second compound 0.000949 µM, first compound 0.01 µM) was 106% and the viability, T/C (second compound 0.000949 µM, first compound 0.0316 µM) was 105%. The viability, T/C (second compound 0.000949 µM, first compound 0.1 µM) was 111%, the viability, T/C (second compound 0.000949 µM, first compound 0.316 µM) was 127% and the viability, T/C (second compound 0.000949 µM, first compound 1 µM) was 126%. For the same molecule, the viability, T/C (second compound 0.003 µM, first compound 0.00316 µM) was 99.6%, the viability, T/C (second compound 0.003 µM, first compound 0.01 µM) was 104% and the viability, T/C (second compound 0.003 µM, first compound 0.0316 µM) was 116%. For the same molecule, the viability, T/C (second compound 0.003 µM, first compound 0.1 µM) was 101%, the viability, T/C (second compound 0.003 µM, first compound 0.316 µM) was 114% and the viability, T/C (second compound 0.003 µM, first compound 1 µM) was 108%. The viability, T/C (second compound 0.00949 µM, first compound 0.00316 µM) was 101%, the viability, T/C (second compound 0.00949 µM, first compound 0.01 µM) was 112% and the viability, T/C (second compound 0.00949 µM, first compound 0.0316 µM) was 98.9%. For the same molecule, the viability, T/C (second compound 0.00949 µM, first compound 0.1 µM) was 101%, the viability, T/C (second compound 0.00949 µM, first compound 0.316 µM) was 118% and the viability, T/C (second compound 0.00949 µM, first compound 1 µM) was 104%. The viability, T/C (second compound 0.03 µM, first compound 0.00316 µM) was 106%, the viability, T/C (second compound 0.03 µM, first compound 0.01 µM) was 112% and the viability, T/C (second compound 0.03 µM, first compound 0.0316 µM) was 103%. For the same molecule, the viability, T/C (second compound 0.03 µM, first compound 0.1 µM) was 121%, the viability, T/C (second compound 0.03 µM, first compound 0.316 µM) was 110% and the viability, T/C (second compound 0.03 µM, first compound 1 µM) was 110%. For the same molecule, the viability, T/C (second compound 0.0949 µM, first compound 0.00316 µM) was 111%, the viability, T/C (second compound 0.0949 µM, first compound 0.01 µM) was 117% and the viability, T/C (second compound 0.0949 µM, first compound 0.0316 µM) was 117%. It also gave a viability, T/C (second compound 0.0949 µM, first compound 0.1 µM) of 116%, a viability, T/C (second compound 0.0949 µM, first compound 0.316 µM) of 120% and a viability, T/C (second compound 0.0949 µM, first compound 1 µM) of 110%. The viability, T/C (second compound 0.3 µM, first compound 0.00316 µM) was 123%, the viability, T/C (second compound 0.3 µM, first compound 0.01 µM) was 111% and the viability, T/C (second compound 0.3 µM, first compound 0.0316 µM) was 100%. The viability, T/C (second compound 0.3 µM, first compound 0.1 µM) was 116%, the viability, T/C (second compound 0.3 µM, first compound 0.316 µM) was 111% and the viability, T/C (second compound 0.3 µM, first compound 1 µM) was 99.7%.
Work on CC1(C)CCC(Nc2ncc(C(F)(F)F)c(-c3c[nH]c4c(P(C)(C)=O)c(C#N)ccc34)n2)CN1 (stereo unspecified) + CCn1c(-c2cc(N3CCN(C)CC3)cnc2C(C)OC)c2c3cc(ccc31)-c1csc(n1)CC(NC(=O)C1CC1C)C(=O)N1CCCC(N1)C(=O)OCC(C)(C)C2 yielded an IC50 (second compound 0.000949 µM) of 2.87 nM, an IC50 (second compound 0.003 µM) of 2.98 nM and an IC50 (second compound 0.00949 µM) of 3.56 nM. It also gave an IC50 (second compound 0.03 µM) of 2.5 nM, an IC50 (second compound 0.0949 µM) of 3.54 nM and an IC50 (second compound 0.3 µM) of 2.87 nM. The viability, T/C [1] was 104%, the viability, T/C [2] was 47.7% and the viability, T/C [3] was 24.2%. It also gave a viability, T/C [4] of 16.2%, a viability, T/C [5] of 17.3% and a viability, T/C [6] of 15.1%. The viability, T/C [7] was 79.3%, the viability, T/C [8] was 49.8% and the viability, T/C [9] was 25.2%. For the same molecule, the viability, T/C [10] was 18.4%, the viability, T/C [11] was 16% and the viability, T/C [12] was 17.5%. The viability, T/C [13] was 83.1%, the viability, T/C [14] was 54.7% and the viability, T/C [15] was 23.2%. The viability, T/C [16] was 15.7%, the viability, T/C [17] was 17.8% and the viability, T/C [18] was 17.8%. It also gave a viability, T/C [19] of 83.3%, a viability, T/C [20] of 43.7% and a viability, T/C [21] of 23.4%. The viability, T/C [22] was 19.8%, the viability, T/C [23] was 17.5% and the viability, T/C [24] was 18.3%. For the same molecule, the viability, T/C [25] was 81.3%, the viability, T/C [26] was 54% and the viability, T/C [27] was 26.2%. It also gave a viability, T/C [28] of 19.4%, a viability, T/C [29] of 18.1% and a viability, T/C [30] of 16.6%. For the same molecule, the viability, T/C [31] was 78.5%, the viability, T/C [32] was 48.9% and the viability, T/C [33] was 23.7%. It also gave a viability, T/C [34] of 18.4%, a viability, T/C [35] of 16% and a viability, T/C [36] of 17.2%.
For CCc1c2c(nc3ccc(O)cc13)-c1cc3c(c(=O)n1C2)COC(=O)[C@]3(O)CC + CCn1c(-c2cc(N3CCN(C)CC3)cnc2C(C)OC)c2c3cc(ccc31)-c1csc(n1)CC(NC(=O)C1CC1C)C(=O)N1CCCC(N1)C(=O)OCC(C)(C)C2, the IC50 (second compound 0.000949 µM) was 3.72 nM, the IC50 (second compound 0.003 µM) was 3.54 nM and the IC50 (second compound 0.00949 µM) was 3.37 nM. It also gave an IC50 (second compound 0.03 µM) of 3.84 nM, an IC50 (second compound 0.0949 µM) of 3.78 nM and an IC50 (second compound 0.3 µM) of 3.6 nM. For the same molecule, the viability, T/C [1] was 78.6%, the viability, T/C [2] was 55.3% and the viability, T/C [3] was 25.9%. It also gave a viability, T/C [4] of 8.36%, a viability, T/C [5] of 6.43% and a viability, T/C [6] of 6.55%. For the same molecule, the viability, T/C [7] was 79.7%, the viability, T/C [8] was 53.8% and the viability, T/C [9] was 25.5%. For the same molecule, the viability, T/C [10] was 8.25%, the viability, T/C [11] was 8.03% and the viability, T/C [12] was 5.94%. For the same molecule, the viability, T/C [13] was 82.9%, the viability, T/C [14] was 52.6% and the viability, T/C [15] was 24.3%. It also gave a viability, T/C [16] of 9.47%, a viability, T/C [17] of 7.12% and a viability, T/C [18] of 7.62%. The viability, T/C [19] was 79.3%, the viability, T/C [20] was 56.2% and the viability, T/C [21] was 27%. For the same molecule, the viability, T/C [22] was 9.94%, the viability, T/C [23] was 7.45% and the viability, T/C [24] was 5.98%. The viability, T/C [25] was 86.1%, the viability, T/C [26] was 55.3% and the viability, T/C [27] was 28%. The viability, T/C [28] was 9.13%, the viability, T/C [29] was 7.78% and the viability, T/C [30] was 6.37%. For the same molecule, the viability, T/C [31] was 87.5%, the viability, T/C [32] was 55.5% and the viability, T/C [33] was 20.6%. The viability, T/C [34] was 9.8%, the viability, T/C [35] was 7.03% and the viability, T/C [36] was 7.37%.
